Laboratory results: patent US6355799B1, “Substituted benzene compounds, process for their preparation, and herbicidal and defoliant compositions containing them” (ISK Americas Incorporated, priority 1997, dated 2002)

Tests used:
Type in all cases: in vivo
[1] = system: lambsquarters (Chenopodium album, CHEAL); assay: Pre-emerge test, greenhouse herbicide activity screening; conditions: rating scale 0-100, 14 days after application
In short: (§1)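 Rating: 0–100 visual injury, 14 DAA. Application: acetone, 187 l/ha, 15–1000 g ai/ha, flat-fan track sprayer with nozzle 40–45 cm above soil or canopy. Post-emerge runs used 0.25% v/v surfactant on 2–3 leaf plants.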

[2] = system: large crabgrass (Digitaria sanguinalis, DIGSA); assay: as above; conditions: rating scale 0-100, 14 days after application
In short: as §1

[3] = system: green foxtail (Setaria viridis, SETVI); assay: as above; conditions: rating scale 0-100, 14 days after application
In short: as §1

[4] = system: ivyleaf morningglory (Ipomoea hederacea, IPOHE); assay: as above; conditions: rating scale 0-100, 14 days after application
In short: as §1

[5] = system: velvetleaf (Abutilon theophrasti, ABUTH); assay: as above; conditions: rating scale 0-100, 14 days after application
In short: as §1

[6] = system: sicklepod (Cassia obtusifolia, CASOB); assay: as above; conditions: rating scale 0-100, 14 days after application
In short: as §1

[7] = system: barnyardgrass (Echinochloa crus-galli, ECHCG); assay: as above; conditions: rating scale 0-100, 14 days after application
In short: as §1

[8] = system: johnsongrass (Sorghum halepense, SORHA); assay: as above; conditions: rating scale 0-100, 14 days after application
In short: as §1

[9] = system: lambsquarters (Chenopodium album, CHEAL); assay: Post-emerge test, greenhouse herbicide activity screening; conditions: post-emerge, phytotoxicity rating 0-100 at 14 days after application
In short: (§2)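 Sandy loam pots; pre-emerge: sown 1 d pre-spray, surface-watered after, then bottom-watered. Post-emerge: sown 8–21 d before, 2–3 leaf stage, + 0.25% v/v NIS, bottom-watered. Acetone, 187 l/ha track spray, 15–1000 g ai/ha. 0–100 injury score, day 14.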

[10] = system: large crabgrass (Digitaria sanguinalis, DIGSA); assay: as above; conditions: post-emerge, phytotoxicity rating 0-100 at 14 days after application
In short: as §2

[11] = system: green foxtail (Setaria viridis, SETVI); assay: as above; conditions: post-emerge, phytotoxicity rating 0-100 at 14 days after application
In short: as §2

[12] = system: redroot pigweed (Amaranthus retroflexus, AMARE); assay: as above; conditions: post-emerge, phytotoxicity rating 0-100 at 14 days after application
In short: as §2

[13] = system: ivyleaf morningglory (Ipomoea hederacea, IPOHE); assay: as above; conditions: post-emerge, phytotoxicity rating 0-100 at 14 days after application
In short: as §2

[14] = system: velvetleaf (Abutilon theophrasti, ABUTH); assay: as above; conditions: post-emerge, phytotoxicity rating 0-100 at 14 days after application
In short: as §2

[15] = system: sicklepod (Cassia obtusifolia, CASOB); assay: as above; conditions: post-emerge, phytotoxicity rating 0-100 at 14 days after application
In short: as §2

[16] = system: barnyardgrass (Echinochloa crus-galli, ECHCG); assay: as above; conditions: post-emerge, phytotoxicity rating 0-100 at 14 days after application
In short: as §2

[17] = system: field corn (Zea mays L., var. Dekalb 535, CORN); assay: Pre-emerge test, crop safety; conditions: rating scale 0-100, 14 days after application
In short: as §2

[18] = system: upland rice (Oryza sp., var. Tebonnet, RICE); assay: Pre-emerge test, crop safety; conditions: rating scale 0-100, 14 days after application
In short: as §2

[19] = system: field corn (Zea mays L., var. Dekalb 535, CORN); assay: Post-emerge test, crop safety; conditions: post-emerge, crop damage rating 0-100 at 14 days after application
In short: (§3)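 Plants grown in 10 cm pots of sandy loam mix received acetone-dissolved compounds through a moving flat-fan nozzle. Doses ranged from 15 to 1000 g ai/ha. Pre-emerge pots were seeded one day earlier, post-emerge pots 8–21 days earlier. Fourteen days on, each pot was graded 0–100 for damage.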

[20] = system: upland rice (Oryza sp., var. Tebonnet, RICE); assay: Post-emerge test, crop safety; conditions: post-emerge, crop damage rating 0-100 at 14 days after application
In short: as §3

[21] = system: redroot pigweed (Amaranthus retroflexus, AMARE); assay: Pre-emerge test, greenhouse herbicide activity screening; conditions: rating scale 0-100, 14 days after application
In short: as §2

For `COc1c(Cl)cc(F)c(N2C(=O)c3ccccc3C2=O)c1NC(=O)c1ccc(F)cc1F` [13-4], the “Pre-emerge herbicidal activity, phytotoxicity rating CHEAL” value ([1]; 63 g ai/ha) was 100, the “Pre-emerge herbicidal activity, phytotoxicity rating CHEAL” value ([1]; 250 g ai/ha) was 100 and the “Pre-emerge herbicidal activity, phytotoxicity rating DIGSA” value ([2]; 63 g ai/ha) was 0. The “Pre-emerge herbicidal activity, phytotoxicity rating DIGSA” value ([2]; 250 g ai/ha) was 90, the “Pre-emerge herbicidal activity, phytotoxicity rating SETVI” value ([3]; 63 g ai/ha) was 30 and the “Pre-emerge herbicidal activity, phytotoxicity rating SETVI” value ([3]; 250 g ai/ha) was 90. For the same compound, the “Pre-emerge herbicidal activity, phytotoxicity rating IPOHE” value ([4]; 63 g ai/ha) was 10, the “Pre-emerge herbicidal activity, phytotoxicity rating IPOHE” value ([4]; 250 g ai/ha) was 90 and the “Pre-emerge herbicidal activity, phytotoxicity rating ABUTH” value ([5]; 63 g ai/ha) was 90. The “Pre-emerge herbicidal activity, phytotoxicity rating ABUTH” value ([5]; 250 g ai/ha) was 100, the “Pre-emerge herbicidal activity, phytotoxicity rating CASOB” value ([6]; 63 g ai/ha) was 0 and the “Pre-emerge herbicidal activity, phytotoxicity rating CASOB” value ([6]; 250 g ai/ha) was 50. The “Pre-emerge herbicidal activity, phytotoxicity rating ECHCG” value ([7]; 63 g ai/ha) was 0, the “Pre-emerge herbicidal activity, phytotoxicity rating ECHCG” value ([7]; 250 g ai/ha) was 30 and the “Pre-emerge herbicidal activity, phytotoxicity rating SORHA” value ([8]; 63 g ai/ha) was 10. The “Pre-emerge herbicidal activity, phytotoxicity rating SORHA” value ([8]; 250 g ai/ha) was 40, the “Post-emerge Herbicidal Activity CHEAL” value ([9]; 63 g ai/ha) was 95 and the “Post-emerge Herbicidal Activity CHEAL” value ([9]; 250 g ai/ha) was 100. The “Post-emerge Herbicidal Activity DIGSA” value ([10]; 63 g ai/ha) was 0, the “Post-emerge Herbicidal Activity DIGSA” value ([10]; 250 g ai/ha) was 10 and the “Post-emerge Herbicidal Activity SETVI” value ([11]; 63 g ai/ha) was 20. The “Post-emerge Herbicidal Activity SETVI” value ([11]; 250 g ai/ha) was 40, the “Post-emerge Herbicidal Activity AMARE” value ([12]; 63 g ai/ha) was 100 and the “Post-emerge Herbicidal Activity AMARE” value ([12]; 250 g ai/ha) was 95. For the same compound, the “Post-emerge Herbicidal Activity IPOHE” value ([13]; 63 g ai/ha) was 85, the “Post-emerge Herbicidal Activity IPOHE” value ([13]; 250 g ai/ha) was 85 and the “Post-emerge Herbicidal Activity ABUTH” value ([14]; 63 g ai/ha) was 100. For the same compound, the “Post-emerge Herbicidal Activity ABUTH” value ([14]; 250 g ai/ha) was 100, the “Post-emerge Herbicidal Activity CASOB” value ([15]; 63 g ai/ha) was 95 and the “Post-emerge Herbicidal Activity CASOB” value ([15]; 250 g ai/ha) was 100. The “Post-emerge Herbicidal Activity ECHCG” value ([16]; 63 g ai/ha) was 10, the “Post-emerge Herbicidal Activity ECHCG” value ([16]; 250 g ai/ha) was 30 and the “Pre-emerge phytotoxicity rating, crop damage CORN” value ([17]; 63 g ai/ha) was 0. The “Pre-emerge phytotoxicity rating, crop damage CORN” value ([17]; 250 g ai/ha) was 15, the “Pre-emerge phytotoxicity rating, crop damage RICE” value ([18]; 63 g ai/ha) was 0 and the “Pre-emerge phytotoxicity rating, crop damage RICE” value ([18]; 250 g ai/ha) was 30. For the same compound, the “Post-emerge Herbicidal Activity CORN” value ([19]; 63 g ai/ha) was 5, the “Post-emerge Herbicidal Activity CORN” value ([19]; 250 g ai/ha) was 5 and the “Post-emerge Herbicidal Activity RICE” value ([20]; 63 g ai/ha) was 30. For the same compound, the “Post-emerge Herbicidal Activity RICE” value ([20]; 250 g ai/ha) was 50, the “Pre-emerge herbicidal activity, phytotoxicity rating AMARE” value ([21]; 63 g ai/ha) was 60 and the “Pre-emerge herbicidal activity, phytotoxicity rating AMARE” value ([21]; 250 g ai/ha) was 100.
